Results published in PubChem BioAssay AID2060508 (Molecular Pharmacology Branch, DTP, NCI, 2025).

tested on: 454973-116-R2-J3-PDC spheroids, viability, % test/control; assay: Anticancer human tumor 454973-116-R2-J3-PDC patient-derived pancreatic carcinoma cell line growth inhibition [GQUAD]; conditions: second compound 0.316 µM; first compound 1 µM; stronger effect = lower value; spheroids with HUVEC and MSC
Description: DNA G-quadruplex Stabilizer Agents in Combinations in Complex Spheroids
A high-throughput screen of multi-cell type tumor spheroids was designed to identify active combinations of DNA G-quadruplex stabilizer agents and targeted small molecules. Complex spheroids include a stromal component modeled by human endothelial cells (HUVEC) and fibroblasts modeled by human mesenchymal stem cells (MSCs). The concentration ranges selected for each drug and investigational agent were based upon clinically achievable concentrations if the clinical Cmax of the agent was known.
Compounds. The drugs and investigational agents: pidnarulex (CX-5461; NSC782164), APTO-253 (NSC789042), BRACO-19 (NSC847499), peposertib (NSC802822), ceralasertib (NSC780249), elimusertib (NSC800525), camonsertib (NSC841442), AZD-1390 (NSC803789), olaparib (NSC753686), talazoparib (NSC767125), ART-558 (NSC835418), sotorasib (NSC818433), MRTX-1133 (NSC836407), SN-38 (NSC673596), topotecan (NSC609699), etoposide (NSC141540), doxorubicin (NSC123127), gemcitabine (NSC613327), 5-fluorouracil (NSC19893), paclitaxel (NSC125973), vemurafenib (NSC761431), panobinostat (NSC761190), R-306465 (JNJ-16241199; NSC773264), adavosertib (NSC754352), TP-3654 (NSC805149), carboplatin (NSC241240), KSQ-4279 (NSC840948), and staurosporine (NSC755774) were obtained from the National Cancer Institute (NCI) Developmental Therapeutics Program Chemical Repository (34). The FDA-approved anticancer drug set is available from the NCI Developmental Therapeutics Program. […] The stock solutions were prepared in dimethyl sulfoxide (DMSO, Sigma-Aldrich, St. Louis, MO, cat. D2650) at 800-fold the tested concentration and stored at -70 degrees C prior to their use. All drugs and investigational agents were tested over a range starting from a high concentration at or near the clinical Cmax and decreasing in half-log increments. If the clinical Cmax for an agent had not been determined, the highest concentration tested was 10 microM.
2.3 Cell Culture. All cells were maintained in an incubator at 37 degrees C and 5% CO2 with 95% humidity. The PDC lines were cultured according to standard operating procedures established by the NCI PDMR. All PDCs were thawed and cultured in Matrigel-coated flasks prepared with a working solution of 1X Ham's F-12 nutrient mix, without supplementation (Invitrogen, cat. 11765054), 100 U/mL penicillin-streptomycin (Invitrogen, cat. 15140122), and 2.5% Matrigel (Corning Inc., cat. 354248) for the first three passages. The 857933-349-R-J2-PDC line was cultured in 6C/Colon 1B media, which includes advanced DMEM/F-12 (Thermo Fisher Scientific, cat. 12634028), 10 mM HEPES (Thermo Fisher Scientific, cat. 15630080), 1X GlutaMAX supplement (Thermo Fisher Scientific, cat. 35050061), 0.1 mg/mL primocin (InvivoGen, cat. ant-pm-2), 10% defined fetal bovine serum, heat inactivated (HyClone Laboratories Inc., cat. SH30070.03HI), 50% L-WRN conditioned media (ATCC, cat. CRL-3276), 1.25 mM N-Acetyl-L-cysteine (Sigma-Aldrich, cat. A9165), 10 mM nicotinamide (Sigma-Aldrich, cat. N0636), 1X B-27 supplement (Thermo Fisher Scientific, cat. 17504044), 1X N-2 supplement (Thermo Fisher Scientific, cat. 17502048), 10 microM Y-27632 dihydrochloride (Tocris Bioscience, cat. 1254), and 50 ng/mL human EGF recombinant protein (Thermo Fisher Scientific, cat. PHG0311). The 485176-168-R4-J1-PDC line was cultured in Panc media, which includes all 6C/Colon 1B media components plus 100 ng/mL human FGF-10 (Thermo Fisher Scientific, cat. 100-26), 500 nM SB-431542 (Selleckchem, cat. S1067), and gastrin (Tocris, cat. 3006).
[…]
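Further: spheroids exposed to compounds for seven days.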

SMILES	viability, T/C [%]
CC1COCCN1c1cc(C2(O)CC3CCC(C2)O3)c2cnn(-c3ccn[nH]3)c2n1 (stereo not given) + Cc1cnc(CNC(=O)c2c(=O)c3ccc(N4CCCN(C)CC4)nc3n3c2sc2ccccc23)cn1	22
COc1ccc([C@@H](O)c2cc(-c3ncnc4cc(N5CCOCC5)ccc34)c(F)cc2Cl)nn1 + Cc1cnc(CNC(=O)c2c(=O)c3ccc(N4CCCN(C)CC4)nc3n3c2sc2ccccc23)cn1	42
O=C(c1cc(Cc2n[nH]c(=O)c3ccccc23)ccc1F)N1CCN(C(=O)C2CC2)CC1 + Cc1cnc(CNC(=O)c2c(=O)c3ccc(N4CCCN(C)CC4)nc3n3c2sc2ccccc23)cn1	65.3

same assay, conditions: second compound 0.316 µM; first compound 3.16 µM; stronger effect = lower value; spheroids with HUVEC and MSC

SMILES	viability, T/C [%]
CC1COCCN1c1cc(C2(O)CC3CCC(C2)O3)c2cnn(-c3ccn[nH]3)c2n1 (stereo not given) + Cc1cnc(CNC(=O)c2c(=O)c3ccc(N4CCCN(C)CC4)nc3n3c2sc2ccccc23)cn1	18.3
COc1ccc([C@@H](O)c2cc(-c3ncnc4cc(N5CCOCC5)ccc34)c(F)cc2Cl)nn1 + Cc1cnc(CNC(=O)c2c(=O)c3ccc(N4CCCN(C)CC4)nc3n3c2sc2ccccc23)cn1	40.1
O=C(c1cc(Cc2n[nH]c(=O)c3ccccc23)ccc1F)N1CCN(C(=O)C2CC2)CC1 + Cc1cnc(CNC(=O)c2c(=O)c3ccc(N4CCCN(C)CC4)nc3n3c2sc2ccccc23)cn1	54.9

same assay, conditions: second compound 0.316 µM; first compound 10 µM; stronger effect = lower value; spheroids with HUVEC and MSC

SMILES	viability, T/C [%]
CC1COCCN1c1cc(C2(O)CC3CCC(C2)O3)c2cnn(-c3ccn[nH]3)c2n1 (stereo not given) + Cc1cnc(CNC(=O)c2c(=O)c3ccc(N4CCCN(C)CC4)nc3n3c2sc2ccccc23)cn1	10.8
COc1ccc([C@@H](O)c2cc(-c3ncnc4cc(N5CCOCC5)ccc34)c(F)cc2Cl)nn1 + Cc1cnc(CNC(=O)c2c(=O)c3ccc(N4CCCN(C)CC4)nc3n3c2sc2ccccc23)cn1	30.8
O=C(c1cc(Cc2n[nH]c(=O)c3ccccc23)ccc1F)N1CCN(C(=O)C2CC2)CC1 + Cc1cnc(CNC(=O)c2c(=O)c3ccc(N4CCCN(C)CC4)nc3n3c2sc2ccccc23)cn1	45.9

same assay, conditions: second compound 1 µM; first compound 0.0316 µM; stronger effect = lower value; spheroids with HUVEC and MSC

SMILES	viability, T/C [%]
CC1COCCN1c1cc(C2(O)CC3CCC(C2)O3)c2cnn(-c3ccn[nH]3)c2n1 (stereo not given) + Cc1cnc(CNC(=O)c2c(=O)c3ccc(N4CCCN(C)CC4)nc3n3c2sc2ccccc23)cn1	38.9
COc1ccc([C@@H](O)c2cc(-c3ncnc4cc(N5CCOCC5)ccc34)c(F)cc2Cl)nn1 + Cc1cnc(CNC(=O)c2c(=O)c3ccc(N4CCCN(C)CC4)nc3n3c2sc2ccccc23)cn1	68.2
O=C(c1cc(Cc2n[nH]c(=O)c3ccccc23)ccc1F)N1CCN(C(=O)C2CC2)CC1 + Cc1cnc(CNC(=O)c2c(=O)c3ccc(N4CCCN(C)CC4)nc3n3c2sc2ccccc23)cn1	60.5

same assay, conditions: second compound 1 µM; first compound 0.1 µM; stronger effect = lower value; spheroids with HUVEC and MSC

SMILES	viability, T/C [%]
CC1COCCN1c1cc(C2(O)CC3CCC(C2)O3)c2cnn(-c3ccn[nH]3)c2n1 (stereo not given) + Cc1cnc(CNC(=O)c2c(=O)c3ccc(N4CCCN(C)CC4)nc3n3c2sc2ccccc23)cn1	29.1
COc1ccc([C@@H](O)c2cc(-c3ncnc4cc(N5CCOCC5)ccc34)c(F)cc2Cl)nn1 + Cc1cnc(CNC(=O)c2c(=O)c3ccc(N4CCCN(C)CC4)nc3n3c2sc2ccccc23)cn1	59.2
O=C(c1cc(Cc2n[nH]c(=O)c3ccccc23)ccc1F)N1CCN(C(=O)C2CC2)CC1 + Cc1cnc(CNC(=O)c2c(=O)c3ccc(N4CCCN(C)CC4)nc3n3c2sc2ccccc23)cn1	65.3
